From patent publication US9789181B2, “PAN-DR binding polypeptides and uses thereof” (Epimmune Inc., priority 2009, dated 2017)
Where no end group is shown, it is not given here.

How the values were obtained:
[1] = molecular target: purified HLA DRB1 *0404 (Homo sapiens, UniProt P01903+P01911, A100R/A169T/F76Y/I96L/K127E/L162R/M171V/N62H/P40V/Q125Y/R42H/S133A/S149N/S66Y/V209L/W38E); assay: IC50nM to purified HLA | DRB1 *0404
Protocol: (§1) Table printed on a drawing sheet, FIG. 1
Head of the field: IC50nM to purified HLA | DRB1 *0404
(§2) First copying reader's note: The comma is the decimal sign and the point a thousands separator (e.g. 21.831); some values are printed bold or italic and some SEQ ID NOs underlined, with no legend on the sheet.
Where the first naming reader finds the target: head: IC50nM to purified HLA | DRB1 *0404

[2] = molecular target: purified HLA DRB1 *1501 (Homo sapiens, UniProt P01903+P01911); assay: IC50nM to purified HLA | DRB1 *1501
Protocol: as §1
Head of the field: IC50nM to purified HLA | DRB1 *1501
as §2
Where the first naming reader finds the target: head: IC50nM to purified HLA | DRB1 *1501

[3] = molecular target: purified HLA DRB5 *0101 (Homo sapiens, UniProt P01903+Q30154); assay: IC50nM to purified HLA | DRB5 *0101
Protocol: as §1
Head of the field: IC50nM to purified HLA | DRB5 *0101
as §2
Where the first naming reader finds the target: head: IC50nM to purified HLA | DRB5 *0101

[4] = molecular target: purified HLA DRB1 *0701 (Homo sapiens, UniProt P01903+P01911, A100R/A102G/A103Q/D57E/D86V/E43K/F76Y/K127E/L162R/M171V/P40G/Q125H/Q99D/R33Q/R42Y/R54Q/S133A/S66F/T210M/V115G/Y107V/Y59L/Y89S); assay: IC50nM to purified HLA | DRB1 *0701
Protocol: as §1
Head of the field: IC50nM to purified HLA | DRB1 *0701
as §2
Where the first naming reader finds the target: head: IC50nM to purified HLA | DRB1 *0701

[5] = molecular target: purified HLA DRB4 *0101 (Homo sapiens, UniProt P01903+P13762, G164S); assay: IC50nM to purified HLA | DRB4 *0101
Protocol: as §1
Head of the field: IC50nM to purified HLA | DRB4 *0101
as §2
Where the first naming reader finds the target: head: IC50nM to purified HLA | DRB4 *0101

[6] = molecular target: purified HLA DRB1 *1302 (Homo sapiens, UniProt P01903+P01911, A100E/A169T/K41T/L162R/M171V/P40S/Q125H/Q178H/Q39Y/Q99D/R42S/S66N/T262R/V115G/W38E/Y61H); assay: IC50nM to purified HLA | DRB1 *1302
Protocol: as §1
Head of the field: IC50nM to purified HLA | DRB1 *1302
as §2
Where the first naming reader finds the target: head: IC50nM to purified HLA | DRB1 *1302

[7] = molecular target: purified HLA DRB1 *0301 (Homo sapiens, UniProt P01903+P01911, A100K/A102G/A103R/A169T/F55Y/I96L/K41T/L162R/M171V/P40S/Q125H/Q178H/Q39Y/R42S/S66N/T106N/T262R/W38E/Y61H); assay: IC50nM to purified HLA | DRB1 *0301
Protocol: as §1
Head of the field: IC50nM to purified HLA | DRB1 *0301
as §2
Where the first naming reader finds the target: head: IC50nM to purified HLA | DRB1 *0301

[8] = molecular target: purified HLA DRB1 *0901 (Homo sapiens, UniProt P01903+P01911, A100R/A103E/D57H/D86V/F55Y/F60I/F76Y/I96F/K127E/L162R/M171V/P40D/Q125H/Q99R/R33Q/R42F/S133A/S66N/T210M/V115G/W38K/Y107V/Y59G/Y89S); assay: IC50nM to purified HLA | DRB1 *0901
Protocol: as §1
Head of the field: IC50nM to purified HLA | DRB1 *0901
as §2
Where the first naming reader finds the target: head: IC50nM to purified HLA | DRB1 *0901

[9] = molecular target: purified HLA DRB1 *0401 (Homo sapiens, UniProt P01903+P01911, A100K/A169T/F76Y/I96L/K127E/L162R/M171V/N62H/P40V/Q125Y/R42H/S133A/S149N/S66Y/V115G/V209L/W38E); assay: IC50nM to purified HLA | DRB1 *0401
Protocol: as §1
Head of the field: IC50nM to purified HLA | DRB1 *0401
as §2
Where the first naming reader finds the target: head: IC50nM to purified HLA | DRB1 *0401

[10] = molecular target: purified HLA DRB1 *0101 (Homo sapiens, UniProt P01903+P01911, A100R/D57E/F55L/F60I/F76Y/I96L/L162R/M171V/P40L/Q125E/R42F/V115G/Y59C); assay: IC50nM to purified HLA | DRB1 *0101
Protocol: as §1
Head of the field: IC50nM to purified HLA | DRB1 *0101
as §2
Where the first naming reader finds the target: head: IC50nM to purified HLA | DRB1 *0101

[11] = molecular target: purified HLA DRB1 *1101 (Homo sapiens, UniProt P01903+P01911, A100R/A169T/A87E/I96F/K41T/L162R/M171V/P40S/Q125H/Q178H/Q39Y/Q99D/R42S/S66Y/T262R/V115G/W38E); assay: IC50nM to purified HLA | DRB1 *1101
Protocol: as §1
Head of the field: IC50nM to purified HLA | DRB1 *1101
as §2
Where the first naming reader finds the target: head: IC50nM to purified HLA | DRB1 *1101

[12] = molecular target: purified HLA DRB1 *0405 (Homo sapiens, UniProt P01903+P01911, A100R/A169T/D86S/F76Y/I96L/K127E/L162R/M171V/N62H/P40V/Q125Y/R42H/S133A/S149N/S66Y/V115G/V209L/W38E); assay: IC50nM to purified HLA | DRB1 *0405
Protocol: as §1
Head of the field: IC50nM to purified HLA | DRB1 *0405
as §2
Where the first naming reader finds the target: head: IC50nM to purified HLA | DRB1 *0405

[13] = molecular target: purified HLA DRB1 *0802 (Homo sapiens, UniProt P01903+P01911, A100R/A103L/A169T/F76Y/H45Y/I96F/K41T/L162R/M171V/P40S/Q125H/Q178H/Q39Y/Q99D/R218S/R42G/S66Y/V115G/W38E); assay: IC50nM to purified HLA | DRB1 *0802
Protocol: as §1
Head of the field: IC50nM to purified HLA | DRB1 *0802
as §2
Where the first naming reader finds the target: head: IC50nM to purified HLA | DRB1 *0802

Chain of purified HLA DRB1 *0301 (P01903 26-254 limits assumed, other chains not shown): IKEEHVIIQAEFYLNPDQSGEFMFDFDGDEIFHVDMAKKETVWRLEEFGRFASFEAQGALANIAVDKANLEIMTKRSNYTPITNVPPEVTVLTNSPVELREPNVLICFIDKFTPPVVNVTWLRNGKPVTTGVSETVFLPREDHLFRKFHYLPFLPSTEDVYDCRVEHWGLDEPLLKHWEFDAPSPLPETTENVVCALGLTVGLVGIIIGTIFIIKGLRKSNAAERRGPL
Chain of purified HLA DRB4 *0101 (P01903 26-254 limits assumed): as the sequence (P01903 26-254 limits assumed, other chains not shown) above
Chain of purified HLA DRB4 *0101 (P13762 whole entry G164S): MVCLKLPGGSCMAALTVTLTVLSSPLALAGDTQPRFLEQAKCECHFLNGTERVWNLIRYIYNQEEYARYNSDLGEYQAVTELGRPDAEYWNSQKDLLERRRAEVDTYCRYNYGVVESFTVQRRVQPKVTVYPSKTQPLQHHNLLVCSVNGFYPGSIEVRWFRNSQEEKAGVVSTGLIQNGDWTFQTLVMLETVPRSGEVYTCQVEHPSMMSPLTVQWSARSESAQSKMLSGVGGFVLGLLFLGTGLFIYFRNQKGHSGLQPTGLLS
Chain of purified HLA DRB1 *1302 (P01903 26-254 limits assumed, other chains not shown): as the sequence (P01903 26-254 limits assumed, other chains not shown) above
Chain of purified HLA DRB1 *1101 (P01903 26-254 limits assumed, other chains not shown): as above

Row | Sequence | IC50 [1] [µM] | IC50 [2] [µM] | IC50 [3] [µM] | IC50 [4] [µM] | IC50 [5] [µM] | IC50 [6] [µM] | IC50 [7] [µM] | IC50 [8] [µM] | IC50 [9] [µM] | IC50 [10] [µM] | IC50 [11] [µM] | IC50 [12] [µM] | IC50 [13] [µM]
1 | AAAFFVAAFTLHAAA [SEQ ID NO: 14] | 0.0011 | 0.025 | 0.029 | 0.61 | 0.129 | 219 | 0.371 | 0.048 | 0.002 | – | – | – | –
2 | AAAFFVAANTLHAAA [SEQ ID NO: 15] | 0.0041 | 0.07 | – | – | 0.876 | 0.064 | – | 0.031 | 0.0038 | 0.0065 | 0.042 | 0.027 | –
3 | AAAFFVAANTLKADA [SEQ ID NO: 19] | 0.0045 | 0.103 | 0.0044 | – | 5.52 | 0.187 | 0.14 | – | 0.004 | 0.0034 | 0.046 | 0.0095 | –
4 | AAAFFVAAYTLKADA [SEQ ID NO: 17] | 0.006 | 0.025 | 0.0073 | 0.045 | – | 0.856 | – | – | 0.005 | 0.0038 | 0.055 | 0.033 | 0.0067
5 | AAAHFVAAWTLKAAA [SEQ ID NO: 25] | 0.0048 | 0.02 | 0.011 | 0.11 | 0.384 | 1.53 | 0.262 | 0.045 | 0.0031 | 0.0047 | – | – | –
6 | AAAKFVAAWTLHAAA [SEQ ID NO: 6] | 0.0024 | – | 0.022 | 0.035 | 0.209 | 0.656 | – | 0.024 | 0.0034 | 0.0039 | – | – | 0.0076
7 | AAAKFVAAWTLKAAA [SEQ ID NO: 4] | 0.0029 | 0.0098 | 0.0054 | 0.049 | 0.207 | 0.648 | 0.209 | – | – | 0.0033 | 0.011 | 0.025 | 0.0052
8 | AAAWFVAANTLHAAA [SEQ ID NO: 10] | – | 0.101 | 0.022 | 0.043 | 0.606 | 0.038 | 0.174 | 0.033 | 0.0029 | 0.0038 | – | – | 0.0086
9 | AAAWFVAAWTLHAAA [SEQ ID NO: 7] | 0.002 | 0.036 | – | 0.084 | 0.447 | 4.24 | 0.111 | 0.033 | – | 0.0043 | 0.032 | – | –
10 | AAAWFVAAWTLKAAA [SEQ ID NO: 5] | 0.0038 | 0.031 | 0.0093 | – | 0.566 | 2.93 | 0.161 | 0.035 | 0.0031 | – | – | – | 0.0085
11 | AAAWFVAAYTLHAAA [SEQ ID NO: 8] | 0.0032 | 0.0062 | 0.025 | 0.091 | 0.46 | 3.11 | 0.16 | 0.019 | 0.0038 | 0.0039 | – | 0.024 | –
12 | AAAYFVAAWTLKAAA [SEQ ID NO: 20] | 0.0014 | – | 0.0059 | – | 0.291 | 0.917 | – | – | 0.0016 | 0.0027 | 0.011 | 0.0066 | 0.0061
13 | AAAYFVAAYTLHAAA [SEQ ID NO: 22] | 0.0019 | 0.004 | – | 0.065 | 0.445 | 0.83 | 0.077 | 0.011 | 0.0023 | – | – | 0.0073 | 0.0052
